Test results reported in US20150238446A1, “NEW TREATMENT OF FISH WITH A NANOSUS PENS ION OF LUFENURON OR HEXAFLUMURON” (Novartis AG, priority 2012, published 2015).

Legend:
[1] = Stability testing of oily lufenuron or hexaflumuron formulations; type: physicochemical; settings: in organic solvents/media
Text: WO99/063824 discloses the use of hexaflumuron and lufenuron, both members of the chemical class of benzoylureas, in the control of sea lice infestations on fish. Hexaflumurone is applied to the fish orally, via bath treatment or via injection, lufenuron is proposed exclusively for injection. Oily injectable formulations of the two active ingredients, in particular those comprising, in addition, a vaccine against furunculosis, show activity against sea lice for 128 days or in case of hexaflumuron even longer. […] The resulting low shelf life make them unsuited for commercial use. […] In addition, as both hexaflumuron and lufenuron have a strong tendency to aggregate and form sediments in an aqueous environment, the handling of water-based injectables is difficult and cumbersome. So it is not surprising that no commercial lufenuron or hexaflumuron sea lice product has made it to the market until now.

[2] = cited from earlier work
sea lice = settings: cited from earlier work; for duration of activity against sea lice: oily injectable formulations, in particular with a vaccine against furunculosis (WO99/063824)
L. salmonis = assay: In vivo test in Atlantic salmon, natural sea lice infestation, pre-adult and adult count; settings: nanosuspension injected
Description: Three groups of 150 salmon (Atlantic Salmon, S. salar) of an average weight 200 g were injected with an amount of the above nanosuspension (a) equivalent to 25 mg (cage 1), 50 mg (cage 2) or 75 mg lufenuron per kg salmon (cage 3). A fourth cage containing 150 salmon of average weight 200 g was added to the study as a non-treated control group.
After treatment, the fish were exposed to natural sea lice infestation for a period of 8 months. During the study the water temperature varied between 4 and 12° C. Sea louse numbers were assessed on a monthly basis until month 8. Counts were conducted on 10 fish at each sampling occasion. The numbers of pre-adults and adult L. salmonis were recorded for each fish. Efficacy was calculated using the formula:
% Efficacy=100−(100×mean of treatment group/mean of control).

O=C(NC(=O)c1c(F)cccc1F)Nc1cc(Cl)c(OC(F)(F)C(F)F)c(Cl)c1 [hexaflumuron, 1-[3,5-dichloro-4-(1,1,2,2-tetrafluoroethoxyl)phenyl]-3-(2,6-difluorobenzoyl)urea]
chemical stability of the active ingredient [1]: chemically instable | water-solubility [2]: ≤ 0.027 µg/mL | performance in vivo against sea lice (sea lice; hexaflumuron containing aqueous suspension (WO99/063824)): poor performance | duration of activity against sea lice (sea lice): > 128 days

O=C(NC(=O)c1c(F)cccc1F)Nc1cc(Cl)c(OC(F)(F)C(F)C(F)(F)F)cc1Cl (centres unmarked) [lufenuron, N-{[2,5-Dichlor-4-(1,1,2,3,3,3-hexafluorpropoxyl)phenyl]carbamoyl}-2,6-difluorbenzamid]
% efficacy pre-adult and adult count (L. salmonis; 25 mg/kg lufenuron, 1 month): 100% | % efficacy pre-adult and adult count (L. salmonis; 25 mg/kg lufenuron, 2 month): 95% | % efficacy pre-adult and adult count (L. salmonis; 25 mg/kg lufenuron, 3 month): 100% | % efficacy pre-adult and adult count (L. salmonis; 25 mg/kg lufenuron, 4 month): 96% | % efficacy pre-adult and adult count (L. salmonis; 25 mg/kg lufenuron, 5 month): 100% | % efficacy pre-adult and adult count (L. salmonis; 25 mg/kg lufenuron, 6 month): 81% | duration of complete protection of the fish against sea lice infestation (L. salmonis; 25 mg/kg): at least 5 month | duration of complete protection of the fish against sea lice infestation (L. salmonis; 50 mg/kg fish, until the end of the study): 8 month | % efficacy pre-adult and adult count (L. salmonis; 50 mg/kg lufenuron, 1 month): 90% | % efficacy pre-adult and adult count (L. salmonis; 50 mg/kg lufenuron, 2 month): 100% | % efficacy pre-adult and adult count (L. salmonis; 50 mg/kg lufenuron, 3 month): 100% | % efficacy pre-adult and adult count (L. salmonis; 50 mg/kg lufenuron, 4 month): 100% | % efficacy pre-adult and adult count (L. salmonis; 50 mg/kg lufenuron, 5 month): 97% | % efficacy pre-adult and adult count (L. salmonis; 50 mg/kg lufenuron, 6 month): 96% | % efficacy pre-adult and adult count (L. salmonis; 50 mg/kg lufenuron, 7 month): 98% | % efficacy pre-adult and adult count (L. salmonis; 50 mg/kg lufenuron, 8 month): 98% | % efficacy pre-adult and adult count (L. salmonis; 75 mg/kg lufenuron, 1 month): 100% | % efficacy pre-adult and adult count (L. salmonis; 75 mg/kg lufenuron, 2 month): 100% | % efficacy pre-adult and adult count (L. salmonis; 75 mg/kg lufenuron, 3 month): 100% | % efficacy pre-adult and adult count (L. salmonis; 75 mg/kg lufenuron, 4 month): 96% | % efficacy pre-adult and adult count (L. salmonis; 75 mg/kg lufenuron, 5 month): 100% | % efficacy pre-adult and adult count (L. salmonis; 75 mg/kg lufenuron, 6 month): 100% | % efficacy pre-adult and adult count (L. salmonis; 75 mg/kg lufenuron, 7 month): 98% | % efficacy pre-adult and adult count (L. salmonis; 75 mg/kg lufenuron, 8 month): 100% | duration of complete protection of the fish against sea lice infestation (L. salmonis; 75 mg/kg, until the end of the study): 8 month | chemical stability of the active ingredient [1]: chemically instable | water-solubility [2]: ≤ 0.06 µg/mL | duration of activity against sea lice (sea lice): 128 days
